# Measurements published in patent US8329669B2, “Composition and method for treatment of tumors” (Sanofi, priority 2006, dated 2012).
# B1: FasL: Fas Ligand, TNFα family member which signals through Death Receptors (protein, UniProt P48023 130-281, looked up)
# Tumor necrosis factor ligand …: QIGHPSPPPEKKELRKVAHLTGKSNSRSMPLEWEDTYGIVLLSGVKYKKGGLVINETGLYFVYSKVYFRGQSCNNLPLSHKVYMRNSKYPQDLVMMEGKMMSYCTTGQMWARSSYLGAVFNLTSADHLYVNVSELSLVNFEESQTFFGLYKL
# Legend:
# Type in all cases: cell-based
# HCT116 cells [1] = experiment: Cell-Titer Blue viability of cells expressing YFP or full length Core 1 treated with apoptosis inducers
# Method: To determine whether Core 1 protected against apoptosis induced by TRAIL or through other pathways, cells were treated with several different apoptosis inducers and assayed for cell viability. Fas Ligand (FasL), also a TNFα family member which signals through Death Receptors, uses the same adaptor protein FADD to induce caspase activation and apoptosis. Cells stably expressing either yellow florescent protein (YFP) or human full length Core 1 were treated with 100 ng/ml of TRAIL or 16 ng/ml of FasL for 24 hours. Cell viability was assayed using the Cell-Titer Blue assay, where conversion of the indicator dye resazurin is used to measure the metabolic capacity of cells, an indicator of cell viability. […] Cells were then treated with two compounds which induce apoptosis through non-death receptor pathways. Camptothecin inhibits DNA topoisomerase 1, ultimately leading to DNA damage and death, while Taxotere is an inhibitor of microtubule depolymerization, which prevents cell division and leads to mitotic death.
# HCT116 cells [2] = experiment: Western blot for caspase activation upon TRAIL stimulation; settings: full length Core 1 vs YFP expressing HCT116; 200 ng/ml TRAIL, 24 hours
# Method: Cells stably expressing YFP or human full length Core 1 were treated for 24 hours with 200 ng/ml TRAIL, lysed, and western blotted with antibodies to several caspases. Caspase activation was detected by the cleavage of the full length pro-caspase to the smaller, active form. […] Thus, Core 1 expression inhibits the full activation of caspases 8, 9, and 3 upon TRAIL stimulation.
# HCT116 cells [3] = experiment: Cytochrome c release into the cytoplasmic fraction (ELISA); settings: 100 ng/ml TRAIL, 24 hours
# Method: HCT116 cells stably expressing YFP or human full length Core 1 were treated with 100 ng/ml TRAIL for 24 hours. Control cells stably expressing YFP or human full length Core 1 were not treated with TRAIL. The cells were then harvested. Media containing floating cells was first removed to new tubes. The remaining adherent cells were detached using a cell scraper in ice-cold PBS and added to the media containing floating cells. The cells were pelleted by centrifuging at 1000×g for 10 minutes at 4° C. and resuspended in an iso-osmotic buffer (0.3M sucrose, 10 mM Tris pH 7.5, 1 mM EDTA, EDTA-free protease tablet). After a five minute incubation on ice, the cells were lysed using dounce homogenizers until about 90% of the plasma membranes were lysed. This was done to isolate the cytoplasmic fraction. The extent of cell lysis was monitored by mixing 10 μl of lysate with trypan blue and viewed on a hemocytometer. […] The concentration of lysates was determined using either the BioRad DC protein assay (BioRad) or the BCA method (Pierce, Rockford, Ill.). To quantitatively detect cytochrome c levels, lysates were assayed for cytochrome c using a Function ELISA cytochrome c kit (Active Motif, Carlsbad, Calif.) [FIG. 3B]. In untreated cells, low baseline levels of cytochrome c were detected in the cytoplasm.
# HCT116 cells [4] = experiment: JC-1 mitochondrial membrane potential assay (FACS)
# Method: As Core 1 is a subunit of the mitochondrial respiratory Complex III, work was conducted to determine whether expression of Core 1 protects against mitochondrial depolarization, a critical step in mitochondrial mediated apoptosis. Changes in mitochondrial membrane potential during TRAIL treatment were studied using the JC-1 Assay Kit (Molecular Probes). JC-1 (5, 5′,6,6′,-tetrachloro-1,1′,3,3′-tetraethylbenzimidazolylcarbocyanine) is a cationic dye which has a diffuse green fluorescence in the cytoplasm. The accumulation of JC-1 in the mitochondria, which depends on intact, polarized mitochondria, results in the formation of red fluorescent aggregates. The ratio of green to red fluorescence was measured for the cells described in Example 2 above by Fluorescence-activated Cell Sorter (FACS) analysis. FACS is a method to sort cells based on specific cellular surface markers (e.g., red or green fluorescence). The above ratio is plotted as a percentage of polarized mitochondria.
# HCT116 cells [5] = experiment: Annexin V apoptosis assay (FACS) after TRAIL treatment; settings: 50 ng/ml TRAIL
# Method: To further characterize the ability of Core 1 to protect against TRAIL-induced apoptosis, the pEYK vector containing the partial cDNA of UQCRC1 isolated from the screen was used to directly infect HCT116 cells. Cells expressing dominant-negative FADD (dnFADD), which inhibits the signal from the TRAIL receptors, was used as a control. Cells were treated for 48 hours with 0, 10 or 50 ng/mL of TRAIL and assayed for Annexin V, an early marker of apoptosis [FIG. 2A]. Expression of dnFADD inhibited TRAIL-induced apoptosis, with 78% of cells Annexin V negative or non-apoptotic at 50 ng/ml TRAIL.
# To confirm that the protection observed from the partial Core 1 protein is indicative of its function, the full length human Core 1 protein was cloned into the pLenti-vector (containing a HA-tag) and used to infect HCT116 to produce a stable cell line expressing Core 1. A control cell line was prepared similarly to express Yellow Fluorescent Protein (YFP). To confirm the protein expression of full length Core 1, cells were homogenized to prepare a mitochondrial and cytoplasmic lysate and western blotted with antibodies to Core 1 [FIG. 2C]. The endogenous Core 1 is detected in the mitochondrial fraction of both YFP and Core 1 expressing cells. Exogenously expressed Core 1 is HA-tagged and is detected as a higher migrating band in the mitochondrial fraction, as well as the cytoplasmic fraction. […] Thus, Core 1 is expressed in these HCT116 stable cell lines. To determine if full length Core 1 also protects against TRAIL-induced apoptosis, cells were treated with TRAIL and assayed for apoptosis by FACS analysis for cells that were Annexin V positive or negative.
molecule,measurement,setting,value
CC[C@@]1(O)C(=O)OCc2c1cc1n(c2=O)Cc2cc3ccccc3nc2-1 [Camptothecin],difference in viability between cells expressing YFP or full length Core 1,HCT116 cells [1]; 200 nM Camptothecin in dimethyl sulfoxide,No difference in viability
CC(=O)O[C@@]12CO[C@@H]1C[C@H](O)[C@@]1(C)C(=O)[C@H](O)C3=C(C)[C@@H](OC(=O)[C@H](O)[C@@H](NC(=O)OC(C)(C)C)c4ccccc4)C[C@@](O)([C@@H](OC(=O)c4ccccc4)[C@H]21)C3(C)C [Taxotere],difference in viability between cells expressing YFP or full length Core 1,HCT116 cells [1]; 10 nM Taxotere in dimethyl sulfoxide,No difference in viability
"TRAIL: recombinant human TRAIL (BioMol), member of the TNF superfamily that induces apoptosis",caspase 8 activation,HCT116 cells [2],less active caspase 8
same,caspase 9 and caspase 3 activation,HCT116 cells [2],reduced activation
same,increase in cytochrome c released into the cytoplasmic fraction,"HCT116 cells [3]; HCT116 expressing YFP, vs untreated",10 fold
same,"cytochrome c released, relative to YFP cells",HCT116 cells [3]; HCT116 expressing full length Core 1,only one-half as much
same,polarized mitochondria remaining,"HCT116 cells [4]; HCT116 expressing GFP, 50 ng/ml TRAIL",7%
same,mitochondrial depolarization,"HCT116 cells [4]; HCT116 expressing dnFADD, all concentrations of TRAIL",completely protected
same,polarized mitochondria,"HCT116 cells [4]; HCT116 expressing partial Core 1, 50 ng/ml TRAIL",38%
same,protection from mitochondrial depolarization over GFP,"HCT116 cells [4]; partial Core 1 vs GFP expressing cells, 50 ng/ml TRAIL",5 fold
same,cells Annexin V negative,"HCT116 cells [5]; HCT116 expressing GFP, 48 hours",2%
same,cells Annexin V negative or non-apoptotic,"HCT116 cells [5]; HCT116 expressing dnFADD, 48 hours",78%
same,cells Annexin V negative,"HCT116 cells [5]; HCT116 expressing partial Core 1, 48 hours",14.5%
same,protection against TRAIL-induced apoptosis,HCT116 cells [5]; full length Core 1 vs YFP expressing cells,2.5 fold
same,increase in protection from TRAIL induced apoptosis,HCT116 cells [5]; partial Core 1 vs GFP expressing cells,7 fold
B1,protection from FasL induced apoptosis by Core 1 expression,"HCT116 cells [1]; Core 1 vs YFP expressing cells, 16 ng/ml FasL, 24 hours",about a three-fold protection
